Values of other authors, collected in PMC12675387, “Receptor interaction profiles of 4-alkoxy-2,6-dimethoxyphenethylamines (Ψ derivatives) and related amphetamines” (Frontiers in Pharmacology, 2025).
Read-outs that look alike come from different tables or passages of the source.

What was measured:
[1] = target: T1, human 5-HT2A receptor (Homo sapiens, UniProt P28223); conditions: cited from earlier work; for h5-HT2A activation efficacy Emax ± SD: reference substances, ref Luethi et al., 2018; for type of agonism at the 5-HT2A receptor: ref Kolaczynska et al., 2019
T1 construct: expressed in transfected cells; host or cells: NIH-3T3 mouse embryonic fibroblasts
T1 sequence (P28223 whole entry): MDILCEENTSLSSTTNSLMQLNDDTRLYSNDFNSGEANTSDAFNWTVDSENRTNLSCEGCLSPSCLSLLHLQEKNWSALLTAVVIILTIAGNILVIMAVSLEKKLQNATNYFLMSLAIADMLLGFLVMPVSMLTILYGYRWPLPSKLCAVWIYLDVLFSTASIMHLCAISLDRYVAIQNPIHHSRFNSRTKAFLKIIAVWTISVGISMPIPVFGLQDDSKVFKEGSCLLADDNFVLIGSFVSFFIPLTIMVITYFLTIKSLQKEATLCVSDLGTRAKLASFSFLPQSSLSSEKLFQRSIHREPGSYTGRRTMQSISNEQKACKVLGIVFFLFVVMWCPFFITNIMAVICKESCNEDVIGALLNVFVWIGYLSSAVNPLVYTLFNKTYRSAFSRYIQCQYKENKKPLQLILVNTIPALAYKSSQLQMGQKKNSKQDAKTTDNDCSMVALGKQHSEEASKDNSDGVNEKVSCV

[2] = target: T2, human 5-HT2B receptor (Homo sapiens, UniProt P41595); parameters: method as in Luethi et al., 2018; conditions: reference substances; ref Luethi et al., 2018; cited from earlier work
T2 construct: expressed in transfected cells; host or cells: HEK 293 cells
T2 sequence (P41595 whole entry): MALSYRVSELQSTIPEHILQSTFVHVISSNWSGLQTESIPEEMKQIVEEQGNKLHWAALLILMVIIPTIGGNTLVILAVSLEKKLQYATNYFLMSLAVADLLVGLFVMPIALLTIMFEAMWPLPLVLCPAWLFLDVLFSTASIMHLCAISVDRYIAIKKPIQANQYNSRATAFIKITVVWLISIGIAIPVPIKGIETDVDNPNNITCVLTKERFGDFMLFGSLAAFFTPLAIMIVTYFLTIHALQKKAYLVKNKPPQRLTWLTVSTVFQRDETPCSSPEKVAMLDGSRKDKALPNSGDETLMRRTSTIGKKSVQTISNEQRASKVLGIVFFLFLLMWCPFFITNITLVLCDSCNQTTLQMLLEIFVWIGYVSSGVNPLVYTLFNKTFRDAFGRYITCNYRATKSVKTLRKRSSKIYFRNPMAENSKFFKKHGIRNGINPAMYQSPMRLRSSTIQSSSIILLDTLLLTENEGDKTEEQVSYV

[3] = target: rTAAR1 (Rattus norvegicus, UniProt Q923Y9); parameters: expressed in transfected cells; host or cells: HEK 293 cells (membrane preparations); conditions: cited from earlier work
rTAAR1, sequence (Q923Y9 whole entry): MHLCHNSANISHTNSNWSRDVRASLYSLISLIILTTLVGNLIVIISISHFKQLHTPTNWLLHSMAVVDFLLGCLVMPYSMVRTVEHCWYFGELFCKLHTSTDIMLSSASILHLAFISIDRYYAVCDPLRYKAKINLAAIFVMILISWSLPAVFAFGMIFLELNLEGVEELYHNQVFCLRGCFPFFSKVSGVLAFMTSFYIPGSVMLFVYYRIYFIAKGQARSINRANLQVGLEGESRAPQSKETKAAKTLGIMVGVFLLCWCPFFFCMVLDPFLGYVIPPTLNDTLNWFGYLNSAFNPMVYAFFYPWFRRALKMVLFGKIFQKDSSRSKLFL

[4] = cited from earlier work; for duration of effects in humans / psychoactive dose in humans: anecdotal; for fold increase in human potency from mescaline: ref Kolaczynska et al., 2022
[5] = target: h5-HT2A receptor (Homo sapiens, UniProt P28223); parameters: expressed in transfected cells; host or cells: HEK 293 cells (membrane preparations); conditions: ref Kolaczynska et al., 2022; cited from earlier work
h5-HT2A receptor, sequence (P28223 whole entry): as the sequence (P28223 whole entry) above

[6] = target: hDAT (Homo sapiens, UniProt Q01959); parameters: expressed in transfected cells; host or cells: HEK 293 cells (membrane preparations); method as in Luethi et al. (2019b); conditions: reference substance; ref Luethi et al. (2019b); read-out: hDAT Ki ± SD; cited from earlier work
hDAT, sequence (Q01959 whole entry): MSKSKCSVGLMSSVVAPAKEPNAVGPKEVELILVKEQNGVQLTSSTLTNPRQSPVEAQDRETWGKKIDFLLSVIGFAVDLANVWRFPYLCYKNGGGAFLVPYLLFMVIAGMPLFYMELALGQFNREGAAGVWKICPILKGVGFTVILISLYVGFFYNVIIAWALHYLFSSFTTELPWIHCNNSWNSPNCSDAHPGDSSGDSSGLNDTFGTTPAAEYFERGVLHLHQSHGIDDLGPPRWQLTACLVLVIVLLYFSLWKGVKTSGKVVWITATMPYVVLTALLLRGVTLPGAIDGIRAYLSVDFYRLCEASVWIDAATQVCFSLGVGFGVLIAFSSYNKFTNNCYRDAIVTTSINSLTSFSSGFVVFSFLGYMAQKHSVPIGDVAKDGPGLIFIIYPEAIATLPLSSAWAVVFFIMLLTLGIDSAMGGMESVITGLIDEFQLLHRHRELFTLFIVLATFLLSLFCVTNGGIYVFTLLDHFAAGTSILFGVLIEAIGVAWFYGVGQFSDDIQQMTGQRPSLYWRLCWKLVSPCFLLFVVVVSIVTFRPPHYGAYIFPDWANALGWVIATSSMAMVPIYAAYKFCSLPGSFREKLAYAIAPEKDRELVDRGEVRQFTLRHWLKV

[7] = target: hD2 receptor (Homo sapiens, UniProt P14416); parameters: expressed in transfected cells; host or cells: HEK 293 cells (membrane preparations); method as in Luethi et al. (2019b); conditions: reference substance; ref Luethi et al. (2019b); read-out: hD2 Ki ± SD; cited from earlier work
hD2 receptor, sequence (P14416 whole entry): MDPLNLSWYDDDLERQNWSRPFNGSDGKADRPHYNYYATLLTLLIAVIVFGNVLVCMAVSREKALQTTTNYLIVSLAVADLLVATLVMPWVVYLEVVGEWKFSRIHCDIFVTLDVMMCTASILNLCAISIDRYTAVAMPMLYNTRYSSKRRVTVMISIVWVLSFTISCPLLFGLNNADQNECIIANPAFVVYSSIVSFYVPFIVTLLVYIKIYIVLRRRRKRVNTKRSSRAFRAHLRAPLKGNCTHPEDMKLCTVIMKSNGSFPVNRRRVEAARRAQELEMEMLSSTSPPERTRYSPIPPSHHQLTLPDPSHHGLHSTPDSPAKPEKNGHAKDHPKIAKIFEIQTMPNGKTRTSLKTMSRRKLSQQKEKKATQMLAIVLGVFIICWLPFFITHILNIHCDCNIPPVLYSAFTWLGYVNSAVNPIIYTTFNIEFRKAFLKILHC

[8] = target: T3, hα1A adrenergic receptor (Homo sapiens, UniProt P35348); parameters: expressed in transfected cells; host or cells: Chinese hamster ovary cells (membrane preparations); method as in Luethi et al. (2019b); conditions: reference substance; ref Luethi et al. (2019b); read-out: hα1A Ki ± SD; cited from earlier work
T3 sequence (P35348 1-466): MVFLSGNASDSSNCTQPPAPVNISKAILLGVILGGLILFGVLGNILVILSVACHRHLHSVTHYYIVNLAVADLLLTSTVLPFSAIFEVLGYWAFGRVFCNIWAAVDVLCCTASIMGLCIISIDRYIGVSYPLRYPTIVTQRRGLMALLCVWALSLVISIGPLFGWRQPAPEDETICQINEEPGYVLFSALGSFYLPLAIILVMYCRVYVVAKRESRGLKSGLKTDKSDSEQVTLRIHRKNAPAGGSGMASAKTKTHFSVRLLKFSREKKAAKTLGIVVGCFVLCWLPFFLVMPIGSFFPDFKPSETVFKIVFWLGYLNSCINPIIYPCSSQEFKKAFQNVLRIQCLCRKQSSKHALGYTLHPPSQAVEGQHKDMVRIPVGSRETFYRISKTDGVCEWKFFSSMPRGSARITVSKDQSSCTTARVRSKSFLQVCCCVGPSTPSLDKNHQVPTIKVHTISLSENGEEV

[9] = target: T4, hα2A adrenergic receptor (Homo sapiens, UniProt P08913); parameters: expressed in transfected cells; host or cells: Chinese hamster lung cells (membrane preparations); method as in Luethi et al. (2019b); conditions: reference substance; ref Luethi et al. (2019b); read-out: hα2A Ki ± SD; cited from earlier work
T4 sequence (P08913 1-465): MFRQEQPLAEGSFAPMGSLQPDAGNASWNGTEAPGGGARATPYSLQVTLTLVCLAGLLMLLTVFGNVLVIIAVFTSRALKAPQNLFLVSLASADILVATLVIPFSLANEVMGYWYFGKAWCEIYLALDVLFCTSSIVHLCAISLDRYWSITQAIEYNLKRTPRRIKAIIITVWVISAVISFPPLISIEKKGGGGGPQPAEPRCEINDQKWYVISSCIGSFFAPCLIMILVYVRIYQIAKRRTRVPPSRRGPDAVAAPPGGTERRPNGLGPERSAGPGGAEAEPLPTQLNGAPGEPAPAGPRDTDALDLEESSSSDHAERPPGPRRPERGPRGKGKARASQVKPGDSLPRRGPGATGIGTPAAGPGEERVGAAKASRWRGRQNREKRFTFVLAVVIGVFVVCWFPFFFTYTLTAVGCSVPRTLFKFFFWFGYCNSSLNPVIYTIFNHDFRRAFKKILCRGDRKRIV

[10] = target: hNET (Homo sapiens, UniProt P23975); parameters: expressed in transfected cells; host or cells: HEK 293 cells (membrane preparations); method as in Luethi et al. (2019b); conditions: reference substance; ref Luethi et al. (2019b); read-out: hNET Ki ± SD; cited from earlier work
hNET, sequence (P23975 whole entry): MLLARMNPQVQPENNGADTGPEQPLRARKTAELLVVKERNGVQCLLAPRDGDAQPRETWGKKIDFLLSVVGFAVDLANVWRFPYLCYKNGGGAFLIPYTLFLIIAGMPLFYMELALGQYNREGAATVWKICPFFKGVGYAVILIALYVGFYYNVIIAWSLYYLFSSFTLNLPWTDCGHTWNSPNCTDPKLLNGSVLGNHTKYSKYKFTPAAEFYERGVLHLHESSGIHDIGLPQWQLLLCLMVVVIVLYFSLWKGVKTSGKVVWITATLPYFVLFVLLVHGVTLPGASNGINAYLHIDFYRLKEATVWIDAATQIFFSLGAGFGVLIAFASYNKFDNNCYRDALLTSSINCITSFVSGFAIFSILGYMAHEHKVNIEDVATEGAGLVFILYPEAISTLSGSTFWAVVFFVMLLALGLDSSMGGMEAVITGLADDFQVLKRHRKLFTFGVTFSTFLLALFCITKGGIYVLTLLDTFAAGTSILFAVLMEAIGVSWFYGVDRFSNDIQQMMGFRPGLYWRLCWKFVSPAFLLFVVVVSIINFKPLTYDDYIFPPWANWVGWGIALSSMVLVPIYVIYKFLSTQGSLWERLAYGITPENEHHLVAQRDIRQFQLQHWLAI

[11] = target: mTAAR1 (Mus musculus, UniProt Q923Y8); parameters: expressed in transfected cells; host or cells: HEK 293 cells (membrane preparations); method as in Luethi et al. (2019b); conditions: reference substance; ref Luethi et al. (2019b); read-out: mTAAR1 Ki ± SD; cited from earlier work
mTAAR1, sequence (Q923Y8 whole entry): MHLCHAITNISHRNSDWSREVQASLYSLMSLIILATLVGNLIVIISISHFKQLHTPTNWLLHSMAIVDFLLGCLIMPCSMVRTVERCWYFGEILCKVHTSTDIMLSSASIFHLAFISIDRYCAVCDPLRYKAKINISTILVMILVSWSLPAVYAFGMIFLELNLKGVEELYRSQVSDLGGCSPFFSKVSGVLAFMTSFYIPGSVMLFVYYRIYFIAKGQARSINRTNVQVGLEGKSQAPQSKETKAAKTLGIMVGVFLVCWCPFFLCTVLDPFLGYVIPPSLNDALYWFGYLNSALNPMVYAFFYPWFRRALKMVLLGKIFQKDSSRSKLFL

[12] = target: hSERT (Homo sapiens, UniProt P31645); parameters: expressed in transfected cells; host or cells: HEK 293 cells (membrane preparations); method as in Luethi et al. (2019b); conditions: reference substance; ref Luethi et al. (2019b); read-out: hSERT Ki ± SD; cited from earlier work
hSERT, sequence (P31645 whole entry): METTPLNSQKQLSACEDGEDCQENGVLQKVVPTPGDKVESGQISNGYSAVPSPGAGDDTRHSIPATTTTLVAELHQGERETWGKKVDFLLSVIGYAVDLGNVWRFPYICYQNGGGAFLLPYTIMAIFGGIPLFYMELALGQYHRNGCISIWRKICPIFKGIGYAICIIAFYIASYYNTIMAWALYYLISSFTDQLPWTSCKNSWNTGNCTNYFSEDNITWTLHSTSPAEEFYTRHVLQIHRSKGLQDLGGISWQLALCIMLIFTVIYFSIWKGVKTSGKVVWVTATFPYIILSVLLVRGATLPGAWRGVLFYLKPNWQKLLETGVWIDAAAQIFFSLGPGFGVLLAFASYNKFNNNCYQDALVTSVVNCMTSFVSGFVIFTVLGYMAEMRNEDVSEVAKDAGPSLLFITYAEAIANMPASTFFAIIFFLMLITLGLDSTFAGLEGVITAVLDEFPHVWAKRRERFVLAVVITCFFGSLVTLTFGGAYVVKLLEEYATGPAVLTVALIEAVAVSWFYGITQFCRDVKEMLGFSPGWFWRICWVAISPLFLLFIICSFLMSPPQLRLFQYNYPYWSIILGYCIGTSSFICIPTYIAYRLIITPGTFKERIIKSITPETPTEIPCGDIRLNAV

Q: What does the source list for `COc1cc(CCN)c(OC)cc1Br` [2C-B, 4-bromo-2,5-dimethoxyphenethylamine]?
A: h5-HT2A activation efficacy Emax ± SD [1]: 92 ± 8%; h5-HT2B activation efficacy Emax ± SD [2]: 52 ± 26%

Q: For `CCOc1cc(OC)c(CCN)cc1OC` [2C-O-2], which Ki ([3]; read-out: TAAR1 Ki (rat and mouse TAAR1 as worded; compared with the rat value of Ψ-2C-O-2), 2,4,5-trisubstituted derivative, ref Kolaczynska et al., 2019) is on record?
A: 0.67 µM

Q: With `COc1cc(SC(C)C)c(OC)cc1CCN` [2C-T-4] as the compound, how does the “duration of effects in humans” value ([4]; ref Shulgin and Shulgin, 1991) read?
A: 12 to 18 h

Q: And the “psychoactive dose in humans” value ([4]; ref Shulgin and Shulgin, 1991)?
A: 8 to 20 mg

Q: With `COc1cc(CCN)cc(OC)c1OC(F)F` [DFM] as the compound, how does the “fold increase in receptor affinity (Ki values) from mescaline” value [5] read?
A: 3 fold

Q: And the “fold increase in human potency from mescaline” value [4]?
A: 4 fold

Q: Which results are given for `COc1cc(CC(C)N)c(OC)cc1C` (stereo not shown) [DOM]?
A: duration of effects in humans ([4]; ref Shulgin and Shulgin, 1991): 14 to 20 h; psychoactive dose in humans ([4]; ref Shulgin and Shulgin, 1991): 3 to 10 mg

Q: Which “h5-HT2A activation efficacy Emax ± SD” value [1] does the source give for `CCN(CC)C(=O)[C@@H]1C=C2c3cccc4[nH]cc(c34)C[C@H]2N(C)C1` [LSD, lysergic acid diethylamide] here?
A: 73 ± 2%

Q: For `C=CCOc1cc(OC)c(CC(C)N)cc1OC` (stereo not shown) [MALM], which “type of agonism at the 5-HT2A receptor” value [1] is on record?
A: full agonists

Q: Which results are given for `CNC(C)Cc1ccc2c(c1)OCO2` (stereo not shown) [MDMA]?
A: Ki [6]: > 8.5 µM; Ki ([3]; reference substance, ref Luethi et al. (2019b), read-out: rTAAR1 Ki ± SD): 0.25 ± 0.01 µM; Ki [7]: > 13 µM; Ki [8]: 6.9 µM; Ki [9]: 4.6 µM; Ki [10]: > 8.7 µM; Ki [11]: 3.1 µM; Ki [12]: > 7.5 µM

Q: Which “type of agonism at the 5-HT2A receptor” value [1] does the source give for `C=C(C)COc1cc(OC)c(CC(C)N)cc1OC` (stereo not shown) [MMALM] here?
A: full agonists

Q: What does the source list for `COc1cc(OC)c(OC)cc1CC(C)N` (stereo not shown) [TMA-2]?
A: duration of effects in humans ([4]; ref Shulgin and Shulgin, 1991): 8 to 12 h; psychoactive dose in humans ([4]; ref Shulgin and Shulgin, 1991): 20 to 40 mg

Q: What does the source list for `COc1cc(CCN)cc(OC)c1OC(F)(F)F` [trifluoromescaline]?
A: fold increase in receptor affinity (Ki values) from mescaline [5]: 33 fold; fold increase in human potency from mescaline [4]: > 9 fold

Q: What does the source list for `COc1cc(SC(C)C)cc(OC)c1CCN` [Ψ-2C-T-4, 2,6-dimethoxy-4-isopropylthiophenethylamine]?
A: psychoactive dose in humans ([4]; ref Shulgin and Shulgin, 1991): > 12 mg; activity in humans ([4]; highest dose evaluated (12 mg), anecdotal report, ref Shulgin and Shulgin, 1991): inactive

Q: Which “duration of effects in humans” value ([4]; ref Shulgin and Shulgin, 1991) does the source give for `COc1cc(C)cc(OC)c1CC(C)N` (stereo not shown) [Ψ-DOM, 2,6-dimethoxy-4-methylamphetamine] here?
A: 6 to 8 h

Q: What about the “psychoactive dose in humans” value ([4]; ref Shulgin and Shulgin, 1991) of the same compound?
A: 15 to 25 mg
